According to publication PMC8175350, “Drug repurposing screens identify chemical entities for the development of COVID-19 interventions” (Nature Communications, 2021):
pEC50: −log10 of the molar value. Where “and” joins values, the source holds several entries; their conditions need not be identical. Identical values can stand only once. Like-named read-outs stand apart in the source and are kept apart here.

Experiments:
HeLa-ACE2 cells [1] = experiment: cells; settings: Homo sapiens
Calu-3 cells [2] = settings: read-out: Calu-3 cell count EC50 GeoMean
SARS-CoV-2 [3] = type: cell-based
HeLa-ACE2 cells [4] = experiment: Uninfected HeLa-ACE2 24 h live/dead cytotoxicity counter screen; type: cell-based, human; settings: for cytotox: HeLa-ACE2, replicate wells n=1-3
[5] = as above; type: cell-based, human; settings: human, uninfected HeLa-ACE2 cells, geomean; read-out: uninfected HeLa-ACE2 cytotoxicity CC50
SARS-CoV-2 [6] = experiment: microbe, parasite or virus in culture; type: cell-based; settings: for %infected: Calu-3, replicate wells n=1, n=3
Calu-3 cells [7] = experiment: cells; settings: Homo sapiens, Calu-3, 48 h, read-out: Calu-3 cell count Sinf Average
in vitro = settings: human, Calu-3 uninfected cytotoxicity CC50 GeoMean
HeLa-ACE2 cells [8] = experiment: Total cell count in the HeLa-ACE2 TOA (time of addition) assay; type: cell-based, human; settings: Homo sapiens, HeLa-ACE2; read-out: HeLa-ACE2 TOA cell count EC50 GeoMean
SARS-CoV-2 [9] = experiment: microbe, parasite or virus in culture; type: cell-based; settings: for SARS-CoV-2 % infected cells: 10 µM after 1 h infection; for TOA: HeLa-ACE2, replicate wells n=1-3
SARS-CoV-2 [10] = experiment: microbe, parasite or virus in culture; type: cell-based; settings: for %infected: replicate wells n=1-3
Calu-3 cells [11] = tested on: Calu-3 cells

## Cc1cccc(/C=N/Nc2cc(N3CCOCC3)nc(OCCc3ccccn3)n2)c1 [Apilimod]
HeLa-ACE2 cells [1]; HeLa-ACE2, 24 h, read-out: HeLa-ACE2 cell count Sinf Average
  Emax: 100%
HeLa-ACE2 cells [1]; HeLa-ACE2, read-out: cell count in infection assay EC50, HeLa-ACE2, geomean, ^↑ = increasing dose-response curve
  pEC50: < 5.62
Calu-3 cells [2]
  pEC50: < 5.00
SARS-CoV-2 [3]
  effect on viral replication in ALI-HBECs: did not
HeLa-ACE2 cells [4]; concentration log[M] -5
  cytotox: -15.1899 and -14.2304 and -15.9372 and -48.9424 and -19.1078 and -64.1429 and -33.3149 and -48.2124 and -41.1568
HeLa-ACE2 cells [4]; concentration log[M] -5.47712
  cytotox: -17.5527 and -25.9243 and -24.6903 and -15.9737 and -27.2862 and -50.2857 and -23.1323 and -17.6598 and -11.2347
HeLa-ACE2 cells [4]; concentration log[M] -5.95424
  cytotox: -21.6878 and -13.7145 and -16.6804 and -1.094 and -5.874 and -20.5714 and -18.1516 and -18.9599 and -15.1279
HeLa-ACE2 cells [4]; concentration log[M] -6.43136
  cytotox: -15.6962 and -19.7334 and -18.8274 and -9.409 and -6.171 and -21.1429 and -10.736 and -20.585 and -14.4605
HeLa-ACE2 cells [4]; concentration log[M] -6.90849
  cytotox: -10.4641 and -3.052 and -4.5417 and -0.2188 and 4.684 and -6.286 and -9.519 and -8.4507 and -3.003
HeLa-ACE2 cells [4]; concentration log[M] -7.38561
  cytotox: -11.3924 and -4.944 and -1.156 and 4.012 and 4.981 and -8.571 and -7.637 and -6.609 and -5.006
HeLa-ACE2 cells [4]; concentration log[M] -7.86273
  cytotox: 2.7 and 20.6793 and 5.12 and -0.3647 and 26.8401 and -1.429 and 8.744 and -0.2167 and 1.335
HeLa-ACE2 cells [4]; concentration log[M] -8.33985
  cytotox: 2.785 and -0.6449 and 6.028 and -5.1787 and 6.3197 and -9.571 and 2.435 and -18.4182 and -5.673
HeLa-ACE2 cells [4]; human, uninfected HeLa-ACE2 cells, 24 h
  HeLa-ACE2 uninfected cytotoxicity Sinf Average: -100%
HeLa-ACE2 cells [4]; read-out: HeLa-ACE2 uninfected cytotoxicity CC50 GeoMean
  CC50: > 27800 nM
[5]
  CC50 at 24 h: > 11500 nM
SARS-CoV-2 [6]; concentration log[M] -5.00096
  %infected: -58.2494% and -10.7285% and -2.646% and 11.3057% and -47.5294% and -51.353%
SARS-CoV-2 [6]; concentration log[M] -5.47808
  %infected: -10.4468% and 0.966% and 9.424% and 3.404% and -12.1011% and -29.1583%
SARS-CoV-2 [6]; concentration log[M] -6.08014
  %infected: 2.91% and 6.263% and 12.1167% and 11.1729% and -9.57% and -12.4389%
SARS-CoV-2 [6]; concentration log[M] -6.42922
  %infected: 21.192% and -5.066% and 8.086% and -7.067% and 14.7327% and 9.4894%
SARS-CoV-2 [6]; concentration log[M] -6.90623
  %infected: 6.025% and 8.588% and -2.01% and -3.119% and -8.7% and -28.761%
SARS-CoV-2 [6]; concentration log[M] -7.50836
  %infected: -9.733% and 6.842% and -19.0732% and 2.18% and 27.3224% and 13.8795%
SARS-CoV-2 [6]; concentration log[M] -7.85886
  %infected: -0.02646% and -15.3004% and -8.282% and -4.911% and 23.6525% and 32.9983%
SARS-CoV-2 [6]; concentration log[M] -8.33602
  %infected: -3.111% and 7.385% and 13.7435% and 0.4251% and 25.7217% and 25.5685%
SARS-CoV-2 [6]; Severe acute respiratory syndrome coronavirus 2, Calu-3, 48 h, read-out: Calu-3 CoV-2 Sinf Average
  Emax: 100%
SARS-CoV-2 [6]; read-out: Calu-3 CoV-2 EC50 GeoMean
  pEC50: < 5.03
SARS-CoV-2 [6]; selectivity index, uninfected Calu-3 CC50 / SARS-CoV-2 EC50
  Calu-3 SI: > 2.42
Calu-3 cells [7]
  Emax: 100%
In vitro
  CC50 at 48 h: > 22700 nM
HeLa-ACE2 cells [8]
  pEC50: < 5.02
SARS-CoV-2 [9]; 4:00:00 post infection
  SARS-CoV-2 % infected cells: 0.1789% and 0.1674% and 0.3723%
SARS-CoV-2 [9]; 5:00:00
  SARS-CoV-2 % infected cells: 0.5955% and 0.5104% and 0.3072%
SARS-CoV-2 [9]; 6:00:00
  SARS-CoV-2 % infected cells: 15.0073% and 13.3408% and 11.3931%
SARS-CoV-2 [9]; 7:00:00
  SARS-CoV-2 % infected cells: 26.4613% and 25.6934% and 26.6142%
SARS-CoV-2 [9]; 8:00:00
  SARS-CoV-2 % infected cells: 25.5362% and 27.3903% and 25.8074%
SARS-CoV-2 [9]; 10:00:00
  SARS-CoV-2 % infected cells: 26.7887% and 26.2316% and 26.281%
SARS-CoV-2 [9]; 11:00:00
  SARS-CoV-2 % infected cells: 30.9861% and 29.9763% and 30.0495%
SARS-CoV-2 [9]; 12:00:00
  SARS-CoV-2 % infected cells: 30.3761% and 30.6313% and 31.3141%
SARS-CoV-2 [9]; 24:00:00
  SARS-CoV-2 % infected cells: 17.8372% and 19.3932% and 18.4264%
SARS-CoV-2 [9]; HeLa-ACE2, 10 µM
  activity when treatment was initiated at 1 hpi: Loss of activity
SARS-CoV-2 [9]; concentration log[M] -5.61909
  TOA: -9.8778 and -6.262 and 0.3048 and -11.9309 and -26.5472 and -5.999 and -10.1028 and 0.08491 and -22.8314
SARS-CoV-2 [9]; concentration log[M] -6.09621
  TOA: 1.8452 and 11.477 and 4.5258 and -10.0091 and -14.0586 and -2.797 and -23.1834 and -27.6557 and -36.518
SARS-CoV-2 [9]; concentration log[M] -6.57334
  TOA: -3.994 and -3.466 and -5.79 and -4.984 and -4.372 and -2.992 and -21.4509 and 1.122 and -26.1046
SARS-CoV-2 [9]; concentration log[M] -7.05046
  TOA: -6.181 and -4.5978 and -2.954 and -15.6715 and -7.849 and -0.2917 and -3.649 and -3.511 and -18.2837
SARS-CoV-2 [9]; concentration log[M] -7.52758
  TOA: 6.077 and -0.625 and 10.6098 and -1.822 and 4.214 and -1.579 and 5.171 and 1.731 and -77.382
SARS-CoV-2 [9]; concentration log[M] -8.0047
  TOA: 2.779 and 3.019 and 8.825 and -4.236 and -3.9816 and -0.9799 and 1.304 and -2.325 and -36.3674
SARS-CoV-2 [9]; concentration log[M] -8.48182
  TOA: 7.953 and 7.587 and 8.026 and -5.856 and -0.7172 and 2.883 and 9.017 and -1.346 and -21.1061
SARS-CoV-2 [9]; concentration log[M] -8.95894
  TOA: 0.4128 and 0.7327 and 13.745 and -6.2 and 7.839 and 1.622 and 7.708 and 2.325 and 1.297
SARS-CoV-2 [9]; Severe acute respiratory syndrome coronavirus 2, HeLa-ACE2, HeLa-ACE2, fixed 10 hpi, geomean, read-out: CoV-2 TOA EC50
  pEC50: < 5.62
SARS-CoV-2 [9]; read-out: HeLa-ACE2 TOA CoV-2 EC50 GeoMean
  pEC50: < 5.02
SARS-CoV-2 [10]; HeLa-ACE2
  increase in EC50 from MOI = 0.09 to MOI = 2.2: 3.7 fold
SARS-CoV-2 [10]; HeLa-ACE2, geomean, read-out: SARS-CoV-2 EC50
  pEC50: 7.95
SARS-CoV-2 [10]; HeLa-ACE2, individual values of 9 independent experiments, read-out: EC50 (µM), Fig 1c
  EC50: 32 nM and 10 nM (2×) and 9 nM (3×) and 6 nM (2×) and 35 nM
SARS-CoV-2 [10]; HeLa-ACE2, concentration log[M] -5.61909
  %infected: -89.9366% and -97.9564% and -96.6883% and -98.5854% and -99.176% and -97.4315% and -98.076% and -88.0351% and -79.0377%
SARS-CoV-2 [10]; HeLa-ACE2, concentration log[M] -6.09621
  %infected: -87.038% and -98.4457% and -97.9148% and -98.877% and -98.5692% and -99.1064% and -97.5527% and -92.9215% and -87.0799%
SARS-CoV-2 [10]; HeLa-ACE2, concentration log[M] -6.57334
  %infected: -75.6225% and -96.1764% and -98.2769% and -98.0074% and -97.3703% and -99.7483% and -98.3422% and -89.6186% and -88.4431%
SARS-CoV-2 [10]; HeLa-ACE2, concentration log[M] -7.05046
  %infected: -82.6962% and -96.6541% and -97.5624% and -97.8117% and -96.6757% and -95.0973% and -96.8567% and -85.1569% and -75.3432%
SARS-CoV-2 [10]; HeLa-ACE2, concentration log[M] -7.52758
  %infected: -73.6156% and -84.2045% and -91.7586% and -85.2086% and -88.488% and -83.6715% and -88.6894% and -80.6843% and -66.0801%
SARS-CoV-2 [10]; HeLa-ACE2, concentration log[M] -8.0047
  %infected: -72.126% and -55.1215% and -37.7284% and -49.8809% and -50.2572% and -55.8328% and -53.8485%
SARS-CoV-2 [10]; Severe acute respiratory syndrome coronavirus 2, HeLa-ACE2, 24 h, read-out: HeLa-ACE2 CoV-2 Sinf Average
  Emax: 93%
SARS-CoV-2 [10]; Severe acute respiratory syndrome coronavirus 2, HeLa-ACE2, HeLa-ACE2, MOI 0.09, read-out: EC50
  pEC50: 8.14
SARS-CoV-2 [10]; Severe acute respiratory syndrome coronavirus 2, HeLa-ACE2, HeLa-ACE2, MOI 0.26, read-out: EC50
  pEC50: 7.87
SARS-CoV-2 [10]; Severe acute respiratory syndrome coronavirus 2, HeLa-ACE2, HeLa-ACE2, MOI 0.51, read-out: EC50
  pEC50: 7.73
SARS-CoV-2 [10]; Severe acute respiratory syndrome coronavirus 2, HeLa-ACE2, HeLa-ACE2, MOI 1.1, read-out: EC50
  pEC50: 7.71
SARS-CoV-2 [10]; Severe acute respiratory syndrome coronavirus 2, HeLa-ACE2, HeLa-ACE2, MOI 2.2, read-out: EC50
  pEC50: 7.57
SARS-CoV-2 [10]; Severe acute respiratory syndrome coronavirus 2, HeLa-ACE2, HeLa-ACE2, geomean, read-out: SARS-CoV-2 EC50
  pEC50: 7.96
SARS-CoV-2 [10]; Severe acute respiratory syndrome coronavirus 2, HeLa-ACE2, detail column, read-out: HeLa-ACE2 CoV-2 EC50 GeoMean
  pEC50: > 8.19
SARS-CoV-2 [10]; Severe acute respiratory syndrome coronavirus 2, HeLa-ACE2, of uninfected cells at the highest effective concentrations, read-out: maximal efficacy
  Emax: 85 to 90%
SARS-CoV-2 [10]; selectivity index, uninfected HeLa-ACE2 CC50 / SARS-CoV-2 EC50
  HeLa-ACE2 SI: > 4353.33
Calu-3 cells [11]
  uninfected Calu-3 CC50: > 22.719 ×÷ 1.728 (n=4) μM
Calu-3 cells [11]; human, 48 h
  Calu-3 uninfected cytotoxicity Sinf Average: -100%
